Data as given in ChEMBL document CHEMBL2010637, “Synthesis and evaluation of triazolones as checkpoint kinase 1 inhibitors” (Bioorg Med Chem Lett, 2012).

Assays:
[1] = AUC in nude mouse; assay type: ADME, organism-based; conditions: plasma
[2] = Clearance in nude mouse; assay type: ADME, organism-based; conditions: in vivo
[3] = Half life in nude mouse; assay type: ADME, organism-based; conditions: in vivo
[4] = Volume of distribution at steady state in nude mouse; assay type: ADME, organism-based; conditions: in vivo, read-out: Vdss
[5] = Lipophilicity, Log D of the compound; assay type: physicochemical; conditions: octanol/water

Work on `O=c1[nH]nc2cc(CO)c3ccc(-c4ccc[nH]4)cc3n12` yielded an AUC [1] of 5.47 µM·h, a clearance [2] of 33 mL/min/kg and a half-life [3] of 1.8 h. For the same molecule, the Vd [4] was 3.4 L/kg and the logD [5] was 2.19.
